One series concerns the other currents. Briefly: Inversion of voltage and calcium traces measured in hiPSC-CMs in a cardiac MPS (channel block identification). The series is classed as cell-based, human. As to conditions: cisapride 10 nM; measured MPS data of hiPSC-CMs (FIG. 5). The source says:
[formula] […] The Minimization Procedure

The next series addresses IKr (Homo sapiens, UniProt Q12809). The note with it: from the literature; cited from earlier work.
A further series deals with ICaL (Homo sapiens, UniProt Q13936). The note with it: from the literature; cited from earlier work.
Sequence of ICaL (Q13936 whole entry): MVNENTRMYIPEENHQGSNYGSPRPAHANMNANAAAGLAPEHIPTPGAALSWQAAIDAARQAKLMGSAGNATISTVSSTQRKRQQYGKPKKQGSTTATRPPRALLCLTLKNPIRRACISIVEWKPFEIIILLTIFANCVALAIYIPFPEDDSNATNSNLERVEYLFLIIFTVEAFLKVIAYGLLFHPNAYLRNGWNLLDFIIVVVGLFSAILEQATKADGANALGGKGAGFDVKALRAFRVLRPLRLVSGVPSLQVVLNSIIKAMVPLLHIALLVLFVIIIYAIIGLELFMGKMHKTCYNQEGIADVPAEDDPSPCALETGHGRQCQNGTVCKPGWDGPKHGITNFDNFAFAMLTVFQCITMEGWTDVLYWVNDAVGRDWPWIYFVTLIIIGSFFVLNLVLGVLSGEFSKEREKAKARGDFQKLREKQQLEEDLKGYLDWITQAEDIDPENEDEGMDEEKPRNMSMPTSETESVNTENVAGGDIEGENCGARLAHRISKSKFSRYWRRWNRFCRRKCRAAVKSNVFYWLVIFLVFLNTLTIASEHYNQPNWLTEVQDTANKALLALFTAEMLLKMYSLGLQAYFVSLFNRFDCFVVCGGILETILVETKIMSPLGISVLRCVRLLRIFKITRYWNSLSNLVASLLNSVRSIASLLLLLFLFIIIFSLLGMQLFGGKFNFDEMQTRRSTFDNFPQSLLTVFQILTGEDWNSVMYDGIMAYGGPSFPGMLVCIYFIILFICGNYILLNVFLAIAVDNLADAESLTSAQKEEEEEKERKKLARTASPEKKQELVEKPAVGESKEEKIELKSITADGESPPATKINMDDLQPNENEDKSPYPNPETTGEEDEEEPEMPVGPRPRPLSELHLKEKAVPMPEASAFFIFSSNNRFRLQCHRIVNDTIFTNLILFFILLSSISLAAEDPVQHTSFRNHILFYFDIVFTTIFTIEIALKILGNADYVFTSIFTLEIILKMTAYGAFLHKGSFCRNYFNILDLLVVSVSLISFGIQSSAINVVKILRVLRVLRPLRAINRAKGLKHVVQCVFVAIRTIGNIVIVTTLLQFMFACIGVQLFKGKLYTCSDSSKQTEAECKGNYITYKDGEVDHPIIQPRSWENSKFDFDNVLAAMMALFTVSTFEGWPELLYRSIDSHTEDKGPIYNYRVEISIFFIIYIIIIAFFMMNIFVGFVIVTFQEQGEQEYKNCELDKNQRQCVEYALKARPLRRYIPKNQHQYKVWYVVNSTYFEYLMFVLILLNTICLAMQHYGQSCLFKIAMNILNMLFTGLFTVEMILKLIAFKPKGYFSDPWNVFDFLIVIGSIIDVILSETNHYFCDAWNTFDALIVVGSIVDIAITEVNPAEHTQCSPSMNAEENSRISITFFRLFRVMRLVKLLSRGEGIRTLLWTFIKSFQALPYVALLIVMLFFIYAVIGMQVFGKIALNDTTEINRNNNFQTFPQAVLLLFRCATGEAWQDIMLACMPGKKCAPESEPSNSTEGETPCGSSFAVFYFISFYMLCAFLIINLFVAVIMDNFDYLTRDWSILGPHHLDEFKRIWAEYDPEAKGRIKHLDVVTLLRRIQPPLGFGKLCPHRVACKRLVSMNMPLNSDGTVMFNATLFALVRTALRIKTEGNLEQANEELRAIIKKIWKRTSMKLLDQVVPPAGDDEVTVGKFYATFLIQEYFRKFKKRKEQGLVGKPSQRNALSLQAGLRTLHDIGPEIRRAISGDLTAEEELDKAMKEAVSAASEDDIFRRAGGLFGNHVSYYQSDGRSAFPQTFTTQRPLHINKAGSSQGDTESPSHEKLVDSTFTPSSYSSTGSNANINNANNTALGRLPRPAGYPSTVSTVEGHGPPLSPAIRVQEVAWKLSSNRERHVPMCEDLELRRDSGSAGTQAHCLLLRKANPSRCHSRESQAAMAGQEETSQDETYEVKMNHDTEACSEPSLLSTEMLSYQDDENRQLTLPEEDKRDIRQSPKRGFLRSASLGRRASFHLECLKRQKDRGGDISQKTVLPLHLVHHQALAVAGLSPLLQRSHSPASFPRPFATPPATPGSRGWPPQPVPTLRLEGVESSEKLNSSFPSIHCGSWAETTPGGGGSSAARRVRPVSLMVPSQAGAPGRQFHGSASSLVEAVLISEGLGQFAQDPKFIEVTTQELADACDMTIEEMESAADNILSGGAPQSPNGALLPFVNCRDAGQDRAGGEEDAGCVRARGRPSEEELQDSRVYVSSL
Sequence of ICaL (Q08289 whole entry partner): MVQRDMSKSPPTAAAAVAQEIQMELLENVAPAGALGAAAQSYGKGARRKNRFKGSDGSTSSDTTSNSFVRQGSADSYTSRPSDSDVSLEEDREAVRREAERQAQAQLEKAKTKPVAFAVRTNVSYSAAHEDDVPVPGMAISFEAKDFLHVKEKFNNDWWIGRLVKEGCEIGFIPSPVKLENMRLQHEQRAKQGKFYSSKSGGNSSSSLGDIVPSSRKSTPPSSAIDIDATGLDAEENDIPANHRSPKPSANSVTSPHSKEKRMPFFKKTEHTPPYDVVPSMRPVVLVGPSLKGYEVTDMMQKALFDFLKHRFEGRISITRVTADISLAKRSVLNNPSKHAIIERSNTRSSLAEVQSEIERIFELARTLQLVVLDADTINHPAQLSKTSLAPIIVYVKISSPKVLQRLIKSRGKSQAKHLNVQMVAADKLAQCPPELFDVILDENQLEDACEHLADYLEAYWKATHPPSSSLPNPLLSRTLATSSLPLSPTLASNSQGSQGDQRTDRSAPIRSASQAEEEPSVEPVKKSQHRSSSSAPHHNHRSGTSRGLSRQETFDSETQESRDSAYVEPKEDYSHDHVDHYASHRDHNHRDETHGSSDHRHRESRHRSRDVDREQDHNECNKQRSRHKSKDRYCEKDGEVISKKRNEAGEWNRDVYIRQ
Sequence of ICaL (P54289 25-946 partner limits assumed): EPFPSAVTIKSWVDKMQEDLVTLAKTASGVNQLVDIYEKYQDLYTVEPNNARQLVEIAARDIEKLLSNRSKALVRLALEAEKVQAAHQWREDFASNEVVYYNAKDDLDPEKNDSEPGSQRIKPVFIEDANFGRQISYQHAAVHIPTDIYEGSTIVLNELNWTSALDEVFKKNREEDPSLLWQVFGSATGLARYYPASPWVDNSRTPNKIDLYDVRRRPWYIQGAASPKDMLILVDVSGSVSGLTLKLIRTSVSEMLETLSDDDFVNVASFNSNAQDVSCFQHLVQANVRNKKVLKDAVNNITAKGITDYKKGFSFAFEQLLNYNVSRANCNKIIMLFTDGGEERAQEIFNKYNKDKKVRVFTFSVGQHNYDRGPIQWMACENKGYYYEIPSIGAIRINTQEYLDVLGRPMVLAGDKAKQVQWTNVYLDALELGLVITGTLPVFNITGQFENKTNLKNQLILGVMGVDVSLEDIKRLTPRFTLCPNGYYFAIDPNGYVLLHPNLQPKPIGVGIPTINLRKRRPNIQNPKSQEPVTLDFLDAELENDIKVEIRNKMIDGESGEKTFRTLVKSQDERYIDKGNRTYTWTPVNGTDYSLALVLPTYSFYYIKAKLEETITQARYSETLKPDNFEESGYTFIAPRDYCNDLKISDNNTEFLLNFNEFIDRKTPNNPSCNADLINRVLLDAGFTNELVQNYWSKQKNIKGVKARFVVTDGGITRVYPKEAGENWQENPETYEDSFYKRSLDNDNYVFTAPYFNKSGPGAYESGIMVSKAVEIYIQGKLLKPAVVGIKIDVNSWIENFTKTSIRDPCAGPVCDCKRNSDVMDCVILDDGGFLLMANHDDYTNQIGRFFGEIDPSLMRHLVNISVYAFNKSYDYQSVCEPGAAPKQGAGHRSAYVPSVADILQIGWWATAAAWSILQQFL
Sequence of ICaL (P54289 947-1103 partner limits assumed): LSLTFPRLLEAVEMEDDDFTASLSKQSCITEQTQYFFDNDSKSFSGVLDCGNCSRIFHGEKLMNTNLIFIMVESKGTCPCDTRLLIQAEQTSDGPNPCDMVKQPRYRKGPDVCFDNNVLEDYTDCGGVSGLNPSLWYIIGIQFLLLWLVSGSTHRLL

Sequence of IKr (Q12809 whole entry): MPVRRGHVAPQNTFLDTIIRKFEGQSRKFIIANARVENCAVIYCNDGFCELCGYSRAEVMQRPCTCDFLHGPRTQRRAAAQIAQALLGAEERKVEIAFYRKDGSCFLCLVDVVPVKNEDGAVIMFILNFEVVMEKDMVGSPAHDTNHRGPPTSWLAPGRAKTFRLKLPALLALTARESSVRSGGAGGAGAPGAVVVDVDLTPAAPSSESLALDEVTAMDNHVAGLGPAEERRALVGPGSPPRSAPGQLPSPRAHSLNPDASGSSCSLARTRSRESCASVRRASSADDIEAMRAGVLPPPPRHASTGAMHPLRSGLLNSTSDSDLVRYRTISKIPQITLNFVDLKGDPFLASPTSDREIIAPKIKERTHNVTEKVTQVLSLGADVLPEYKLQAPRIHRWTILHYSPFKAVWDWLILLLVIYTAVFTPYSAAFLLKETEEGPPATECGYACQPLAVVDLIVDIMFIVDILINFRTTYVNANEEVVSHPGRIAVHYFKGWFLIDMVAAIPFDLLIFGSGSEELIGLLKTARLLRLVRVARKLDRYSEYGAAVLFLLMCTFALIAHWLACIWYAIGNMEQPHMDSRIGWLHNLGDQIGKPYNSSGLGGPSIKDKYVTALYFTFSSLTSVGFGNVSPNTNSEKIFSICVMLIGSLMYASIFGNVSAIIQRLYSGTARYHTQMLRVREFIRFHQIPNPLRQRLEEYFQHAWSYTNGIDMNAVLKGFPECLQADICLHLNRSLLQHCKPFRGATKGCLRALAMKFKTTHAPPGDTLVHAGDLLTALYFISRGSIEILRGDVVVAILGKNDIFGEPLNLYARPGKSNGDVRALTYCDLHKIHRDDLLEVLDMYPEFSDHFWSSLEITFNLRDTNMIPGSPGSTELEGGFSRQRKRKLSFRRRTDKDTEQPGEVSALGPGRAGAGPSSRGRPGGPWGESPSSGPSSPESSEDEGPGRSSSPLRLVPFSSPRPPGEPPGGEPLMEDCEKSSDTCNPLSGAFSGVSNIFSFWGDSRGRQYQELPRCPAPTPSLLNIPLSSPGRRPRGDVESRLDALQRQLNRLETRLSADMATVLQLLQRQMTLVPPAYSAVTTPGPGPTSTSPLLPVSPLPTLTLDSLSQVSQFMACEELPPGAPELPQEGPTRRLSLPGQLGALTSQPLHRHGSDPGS

For `COc1cc(N)c(Cl)cc1C(=O)NC1CCN(CCCOc2ccc(F)cc2)CC1OC` (stereo not drawn) [cisapride], the “Effect on the other currents, full inversion procedure” value in the series on the other currents is “nearly unaffected”. Further, at IKr, the “Known effect on IKr” value is “blocks”.

`COc1ccc(CCN(C)CCCC(C#N)(c2ccc(OC)c(OC)c2)C(C)C)cc1OC` (stereo not drawn) [verapamil]: the “Known effect on ICaL” value on ICaL is “blocks”.

Values taken from patent publication US11846631B2, “Methods for determining drug effects on a mature cardiomyocyte” (ORGANOS, INC., priority 2018, dated 2023).
